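These data come from cells grown in 96-well plates and exposed to compound for 48 hours at five concentrations. TGI marks complete inhibition of growth.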
What was measured:
Test in all cases: growth of human tumour cells (NCI), 48 h
M14 melanoma = test system: M14 melanoma
HCC-2998 colon = test system: HCC-2998 colon
UO-31 renal = test system: UO-31 renal
SN12C renal = test system: SN12C renal
SR leukemia = test system: SR leukemia
HCT-15 colon = test system: HCT-15 colon
HCT-116 colon = test system: HCT-116 colon
HS 578T breast = test system: HS 578T breast
U251 CNS = test system: U251 CNS
HOP-62 NSCLC = test system: HOP-62 NSCLC
OVCAR-5 ovarian = test system: OVCAR-5 ovarian
ACHN renal = test system: ACHN renal
SF-268 CNS = test system: SF-268 CNS
SF-539 CNS = test system: SF-539 CNS

SMILES	TGI (M14 melanoma)	TGI (HCC-2998 colon)	TGI (UO-31 renal)	TGI (SN12C renal)	TGI (SR leukemia)	TGI (HCT-15 colon)	TGI (HCT-116 colon)	TGI (HS 578T breast)	TGI (U251 CNS)	TGI (HOP-62 NSCLC)	TGI (OVCAR-5 ovarian)	TGI (ACHN renal)	TGI (SF-268 CNS)	TGI (SF-539 CNS)
COc1ccc(-c2oc3cc(-c4cc5oc(-c6ccc(OC)cc6)c(-c6ccc(OC)cc6)c5cc4OC)c(OC)cc3c2-c2ccc(OC)cc2)cc1	> 100 µM	> 100 µM	> 100 µM	> 100 µM	> 100 µM	> 100 µM	> 100 µM	> 100 µM	> 100 µM	> 100 µM	> 100 µM	> 100 µM	> 100 µM	> 100 µM
N#Cc1ccccc1OCCOc1ccccc1C#N	> 100 µM	> 100 µM	> 100 µM	> 100 µM	> 100 µM	> 100 µM	> 100 µM	> 100 µM	> 100 µM	> 100 µM	> 100 µM	> 100 µM	> 100 µM	> 100 µM
CN(NC1=NCCO1)c1ccc2ccccc2c1	> 100 µM	99.4 µM	> 100 µM	> 100 µM	> 100 µM	> 100 µM	> 100 µM	> 100 µM	> 100 µM	> 100 µM	> 100 µM	> 100 µM	> 100 µM	82.6 µM
O=C1CC(O)c2cscc21 (stereo unspecified)	–	> 100 µM	–	> 100 µM	> 100 µM	> 100 µM	> 100 µM	> 100 µM	> 100 µM	> 100 µM	> 100 µM	> 100 µM	> 100 µM	> 100 µM
CCN(/C=C1/C(=O)C(c2ccccc2)N(c2ccccc2)C1=O)CC (stereo unspecified)	> 10 µM	> 10 µM	> 10 µM	> 10 µM	> 10 µM	> 10 µM	> 10 µM	> 10 µM	> 10 µM	> 10 µM	> 10 µM	> 10 µM	> 10 µM	> 10 µM
COC(=O)/C=C/c1ccc(OP(=O)(O)O)c(OC)c1	> 100 µM	> 100 µM	> 100 µM	> 100 µM	> 100 µM	> 100 µM	> 100 µM	> 100 µM	> 100 µM	> 100 µM	> 100 µM	> 100 µM	> 100 µM	> 100 µM
CCOC(=O)c1c(NC(=O)c2ccccc2)c(C#N)c2n1CCCCC2	> 100 µM	> 100 µM	> 100 µM	> 100 µM	> 100 µM	> 100 µM	> 100 µM	> 100 µM	> 100 µM	> 100 µM	> 100 µM	> 100 µM	> 100 µM	–
CC(SC(=S)N1CCOCC1)C(=O)Nc1nnc(-c2ccc(Cl)cc2)o1 (stereo unspecified)	> 100 µM	> 100 µM	> 100 µM	> 100 µM	40.6 µM	> 100 µM	67.5 µM	> 100 µM	> 100 µM	> 100 µM	> 100 µM	> 100 µM	> 100 µM	> 100 µM
Cc1nc2sc3cccc(Cl)c3n2c(=O)c1N=Nc1ccc(Cl)cc1	> 100 µM	–	–	> 100 µM	> 100 µM	> 100 µM	> 100 µM	> 100 µM	> 100 µM	> 100 µM	> 100 µM	> 100 µM	> 100 µM	> 100 µM
CCOc1cnc(C(O)(c2ccccc2)c2ccccc2)o1	> 100 µM	> 100 µM	> 100 µM	> 100 µM	> 100 µM	> 100 µM	> 100 µM	> 100 µM	> 100 µM	> 100 µM	> 100 µM	> 100 µM	> 100 µM	> 100 µM
O=C(CCc1cc(O)cc(O)c1)NCCc1cc(O)cc(OCc2ccccc2)c1	> 100 µM	39.1 µM	> 100 µM	> 100 µM	87.3 µM	> 100 µM	> 100 µM	> 100 µM	> 100 µM	> 100 µM	> 100 µM	81.6 µM	> 100 µM	> 100 µM
COC(=O)/C=C(\C(=O)OC)c1cc(C)c2cc(C(C)C)ccc(C)c1-2	> 100 µM	87.5 µM	> 100 µM	> 100 µM	> 100 µM	27.5 µM	> 100 µM	> 100 µM	> 100 µM	> 100 µM	> 100 µM	> 100 µM	> 100 µM	> 100 µM
COc1cc2nc(Cl)nc(NS(=O)(=O)c3cc4ccccc4s3)c2cc1OC	85 µM	39.3 µM	33.3 µM	90.6 µM	60.6 µM	> 100 µM	> 100 µM	> 100 µM	68.5 µM	> 100 µM	50 µM	99.6 µM	> 100 µM	> 100 µM
CCN(CC)CCNc1ccc([N+](=O)[O-])c2nc3ccc(OC)cc3c(NCCN(CC)CC)c12	> 5.3 µM	2.01 µM	3.71 µM	3.69 µM	0.609 µM	2.52 µM	2.13 µM	3.91 µM	2.59 µM	3.75 µM	4.79 µM	> 10 µM	> 10 µM	2.43 µM
Cc1ccc(S[C@@](C=O)(NC(=O)OCc2ccccc2)C(F)(F)F)cc1	78.6 µM	> 100 µM	36.6 µM	91.7 µM	44.4 µM	54.4 µM	36.7 µM	> 100 µM	40.7 µM	88.3 µM	54.8 µM	–	> 100 µM	70.9 µM
Cc1nc2c(sc3nc4c(cc32)CCC4)c(=O)o1	> 100 µM	> 100 µM	> 91.1 µM	> 100 µM	> 100 µM	99.6 µM	> 100 µM	> 100 µM	> 100 µM	> 100 µM	> 100 µM	> 100 µM	> 100 µM	> 70.8 µM
COC(CN(C)C(=S)Nc1cccc2ccccc12)OC	> 10 µM	> 10 µM	> 10 µM	> 10 µM	> 10 µM	> 10 µM	> 10 µM	> 10 µM	> 10 µM	> 10 µM	–	> 10 µM	> 10 µM	> 10 µM

SMILES	TGI (M14 melanoma)	TGI (HCC-2998 colon)	TGI (UO-31 renal)	TGI (SN12C renal)	TGI (SR leukemia)	TGI (HCT-15 colon)	TGI (HCT-116 colon)	TGI (HS 578T breast)	TGI (U251 CNS)	TGI (HOP-62 NSCLC)	TGI (OVCAR-5 ovarian)	TGI (ACHN renal)	TGI (SF-268 CNS)	TGI (SF-539 CNS)
Cc1ccc(N=N/C(=N/NC(=O)c2ccccc2)c2ccc(N(CCC#N)CCC#N)cc2C)cc1	> 100 µM	> 100 µM	> 100 µM	> 100 µM	> 100 µM	> 100 µM	> 100 µM	46.9 µM	> 100 µM	> 100 µM	> 100 µM	> 100 µM	> 100 µM	64.7 µM
CC(N)(CC(O)(C(F)(F)Cl)C(F)(F)Cl)C(=O)O (stereo unspecified)	> 10 µM	> 10 µM	> 10 µM	> 10 µM	> 10 µM	> 10 µM	> 10 µM	> 10 µM	> 10 µM	> 10 µM	> 10 µM	> 10 µM	> 10 µM	> 10 µM
COC(=O)[C@@H]1CO[C@H](C(C)(C)C)N1C(=O)N1C=CC(=O)C[C@H]1C	> 100 µM	–	> 100 µM	> 100 µM	> 100 µM	–	> 100 µM	> 100 µM	> 100 µM	> 100 µM	> 100 µM	> 100 µM	> 100 µM	–
CC(=O)c1ccc(N=NN2CCCC2)cc1	> 100 µM	> 100 µM	> 100 µM	> 100 µM	> 100 µM	> 100 µM	> 100 µM	> 100 µM	> 100 µM	> 100 µM	> 100 µM	> 100 µM	> 100 µM	> 100 µM
O=c1c(-c2ccccc2)nnc2n(Cc3ccccc3)c3ccccc3n12	> 100 µM	> 100 µM	> 100 µM	> 100 µM	> 100 µM	> 100 µM	> 100 µM	> 100 µM	> 100 µM	–	> 100 µM	> 100 µM	> 100 µM	> 100 µM
COc1ccccc1C1c2cc3c(cc2OC2(OC)COC(=O)C12)OCO3 (stereo unspecified)	43.3 µM	> 63.8 µM	65.6 µM	> 100 µM	> 28.8 µM	> 100 µM	> 80.9 µM	34.8 µM	> 100 µM	> 91.2 µM	> 100 µM	> 100 µM	83.9 µM	33.4 µM
CCCCCCCCCCCCCCCCCCNc1ccn(C2OC(COP(=O)(O)OCC3OC(n4ccc(N)nc4=O)C(O)C3O)C(O)C2O)c(=O)n1 (stereo unspecified)	> 100 µM	> 100 µM	> 100 µM	> 100 µM	> 100 µM	> 100 µM	> 100 µM	> 100 µM	> 100 µM	> 100 µM	> 100 µM	> 100 µM	> 100 µM	> 100 µM
O=[N+]([O-])c1ccc(/C=N/Nc2nc3ccccc3[nH]2)o1	27.6 µM	–	47.5 µM	32.6 µM	23.6 µM	42.8 µM	36.7 µM	> 100 µM	92.8 µM	35.4 µM	49.8 µM	–	67.6 µM	13.8 µM
CN=c1sc2c(n1C)C(=O)c1ccccc1C2=O	3.01 µM	20.4 µM	19.6 µM	3.05 µM	8.97 µM	4.82 µM	9.1 µM	6.16 µM	10.5 µM	3.39 µM	9.26 µM	19.2 µM	14.5 µM	4.2 µM
Cc1cc(N(CCC#N)CCC#N)ccc1/C(N=Nc1ccccc1)=N\NC(=O)c1cc(Cl)ccc1O	> 100 µM	31.8 µM	41.3 µM	> 100 µM	79.5 µM	53.1 µM	36.7 µM	80.2 µM	> 100 µM	> 100 µM	–	42.6 µM	> 100 µM	58.3 µM
C[C@@H]1CC[C@]2(C)C3(C)CC[C@]2(OC3=O)[C@@]12CC(c1ccoc1)OC2=O (stereo partly specified)	57.2 µM	> 100 µM	45.5 µM	95.5 µM	81 µM	> 100 µM	32.1 µM	> 100 µM	> 100 µM	> 100 µM	78.4 µM	43.6 µM	> 100 µM	59.2 µM
S=C1Cc2c(-c3ccccc3)cc(-c3cccc(Cl)c3)nc2-c2ccccc2N1	> 49.7 µM	18.7 µM	16.9 µM	16.7 µM	46.9 µM	33.4 µM	6.53 µM	6.12 µM	3.31 µM	6.48 µM	> 72.7 µM	3.89 µM	17.7 µM	8.54 µM
O=C(NCCC1CNc2ccccc21)OCc1ccccc1 (stereo unspecified)	> 100 µM	> 100 µM	> 100 µM	–	> 100 µM	> 100 µM	> 100 µM	> 100 µM	> 100 µM	> 100 µM	> 100 µM	> 100 µM	> 100 µM	–
COC1(OC)c2occc2C(=N)c2ccc(=O)oc21	> 100 µM	> 100 µM	> 100 µM	> 100 µM	> 100 µM	> 100 µM	> 100 µM	> 100 µM	> 100 µM	> 100 µM	> 100 µM	> 100 µM	> 100 µM	> 100 µM
[B]C(=O)NC(CC(C)C)C(=O)NCC(=O)NC1c2ccsc2C(=O)C1O (stereo unspecified) (tested in a mixture with another compound)	> 100 µM	> 100 µM	> 100 µM	> 100 µM	> 100 µM	> 100 µM	> 100 µM	> 100 µM	> 100 µM	> 100 µM	> 100 µM	> 100 µM	> 100 µM	> 100 µM
C[C@@H](CC(=O)OCc1ccccc1)OC1OC(COC(=O)C(C)(C)C)C(OC(=O)C(C)(C)C)C(OC(=O)C(C)(C)C)C1OC(=O)C(C)(C)C (stereo partly specified)	> 100 µM	> 100 µM	> 100 µM	> 100 µM	> 100 µM	> 100 µM	> 100 µM	> 100 µM	> 100 µM	> 100 µM	> 100 µM	> 100 µM	> 100 µM	> 100 µM
